Measurements from US6124323A, “4-substituted piperidine analogs and their use as subtype selective NMDA receptor antagonists” (Warner-Lambert Company, priority 1998, dated 2000).
Where a name gives a salt, the structure may show the parent alone.

Columns and labels:
[1] = biological target: T1, NMDA receptor subunits 1A/2C (Rattus norvegicus, UniProt P35439+Q00961); experiment: Electrophysiological assay at NMDA receptor subunits expressed in Xenopus oocytes, 1A/2C; assay type: cell-based; settings: Xenopus oocytes; glutamate 100 μm and glycine 1-100 μm; read-out: Subunits IC50, 1A/2C
T1 construct: expressed in transfected cells; host or cells: Xenopus laevis oocytes (cRNA injection; clones from Dr. P. H. Seeburg)
Procedure, shortened: (§1)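 Two-electrode voltage clamp of Xenopus oocytes injected with rat NR1A plus NR2A, 2B or 2C cRNA (1:1), recorded 3–21 days post-injection in Ringer's, pH 7.4. Currents evoked by glutamate (100 μm) with glycine (1–100 μm); antagonist applied by bath perfusion at rising concentrations, IC50 from logistic fit or linear regression for incomplete curves.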

[2] = biological target: T2, NMDA receptor subunits 1A/2A (Rattus norvegicus, UniProt P35439+Q00959); experiment: Electrophysiological assay at NMDA receptor subunits expressed in Xenopus oocytes, 1A/2A; assay type: cell-based; settings: glutamate 100 μm and glycine 1-100 μm
T2 construct: expressed in transfected cells; host or cells: Xenopus laevis oocytes (cRNA injection; clones from Dr. P. H. Seeburg)
Procedure, shortened: as §1

[3] = system: Maximal Electroshock-induced Seizures; experiment: Maximal electroshock-induced seizures (MES); assay type: in vivo; settings: Mus musculus; mice; 50 mA, 60 pulses/sec, 1 sec
Text: Seizures were induced by application of current (50 mA, 60 pulses/sec, 0.8 sec pulse width, 1 sec duration, d.c.) through saline-coated corneal electrodes using a Ugo Basile ECT device (Model 7801). […] A tonic seizure was defined as a hindlimb extension in excess of 90 degrees from the plane of the body.

[4] = biological target: T3, NMDA receptor subunits 1A/2B (Rattus norvegicus, UniProt P35439+Q00960); experiment: Electrophysiological assay at NMDA receptor subunits expressed in Xenopus oocytes, 1A/2B; assay type: cell-based; settings: Xenopus oocytes; glutamate 100 μm and glycine 1-100 μm; read-out: Subunits IC50, 1A/2B
T3 construct: expressed in transfected cells; host or cells: Xenopus laevis oocytes (cRNA injection; clones from Dr. P. H. Seeburg)
Procedure, shortened: as §1

T2 sequence (Q00959 20-1464 limits assumed, other chains not shown): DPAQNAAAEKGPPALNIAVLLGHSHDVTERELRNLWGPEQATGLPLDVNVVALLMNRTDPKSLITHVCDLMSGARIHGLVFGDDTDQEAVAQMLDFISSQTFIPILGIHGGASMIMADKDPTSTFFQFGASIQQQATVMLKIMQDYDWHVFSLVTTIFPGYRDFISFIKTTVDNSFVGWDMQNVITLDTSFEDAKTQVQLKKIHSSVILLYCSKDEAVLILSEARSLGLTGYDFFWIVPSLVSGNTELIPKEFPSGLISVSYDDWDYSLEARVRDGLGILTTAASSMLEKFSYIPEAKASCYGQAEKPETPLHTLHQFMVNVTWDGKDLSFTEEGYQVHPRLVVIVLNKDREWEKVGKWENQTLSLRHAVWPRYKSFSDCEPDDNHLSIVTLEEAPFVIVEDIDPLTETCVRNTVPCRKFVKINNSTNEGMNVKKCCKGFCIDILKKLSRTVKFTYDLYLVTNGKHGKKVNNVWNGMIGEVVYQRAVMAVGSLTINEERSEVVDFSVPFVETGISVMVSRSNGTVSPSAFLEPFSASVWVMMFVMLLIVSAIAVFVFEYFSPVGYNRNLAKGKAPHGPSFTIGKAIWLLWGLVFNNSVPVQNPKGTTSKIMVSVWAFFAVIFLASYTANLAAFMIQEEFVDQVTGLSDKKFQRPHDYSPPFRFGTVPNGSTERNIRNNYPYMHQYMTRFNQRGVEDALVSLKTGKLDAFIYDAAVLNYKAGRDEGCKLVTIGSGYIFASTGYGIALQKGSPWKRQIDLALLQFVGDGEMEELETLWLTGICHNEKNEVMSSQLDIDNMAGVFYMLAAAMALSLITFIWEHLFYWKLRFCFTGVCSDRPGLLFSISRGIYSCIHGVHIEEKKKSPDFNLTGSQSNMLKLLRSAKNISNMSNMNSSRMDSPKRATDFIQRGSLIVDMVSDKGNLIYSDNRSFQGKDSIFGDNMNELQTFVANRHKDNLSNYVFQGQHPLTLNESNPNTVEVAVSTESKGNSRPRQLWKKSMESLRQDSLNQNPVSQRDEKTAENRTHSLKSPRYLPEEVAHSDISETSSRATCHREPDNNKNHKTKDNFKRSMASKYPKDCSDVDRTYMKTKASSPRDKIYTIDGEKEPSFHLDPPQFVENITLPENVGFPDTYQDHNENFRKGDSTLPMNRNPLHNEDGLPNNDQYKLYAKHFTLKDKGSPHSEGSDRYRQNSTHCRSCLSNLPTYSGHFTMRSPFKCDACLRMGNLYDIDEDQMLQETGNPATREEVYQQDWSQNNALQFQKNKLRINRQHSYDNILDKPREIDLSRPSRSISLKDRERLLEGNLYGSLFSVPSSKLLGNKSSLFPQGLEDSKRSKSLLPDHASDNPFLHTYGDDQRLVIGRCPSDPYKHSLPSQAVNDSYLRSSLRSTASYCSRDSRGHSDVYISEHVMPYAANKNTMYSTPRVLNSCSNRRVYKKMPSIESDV
T3 sequence (Q00960 27-1482, other chains not shown): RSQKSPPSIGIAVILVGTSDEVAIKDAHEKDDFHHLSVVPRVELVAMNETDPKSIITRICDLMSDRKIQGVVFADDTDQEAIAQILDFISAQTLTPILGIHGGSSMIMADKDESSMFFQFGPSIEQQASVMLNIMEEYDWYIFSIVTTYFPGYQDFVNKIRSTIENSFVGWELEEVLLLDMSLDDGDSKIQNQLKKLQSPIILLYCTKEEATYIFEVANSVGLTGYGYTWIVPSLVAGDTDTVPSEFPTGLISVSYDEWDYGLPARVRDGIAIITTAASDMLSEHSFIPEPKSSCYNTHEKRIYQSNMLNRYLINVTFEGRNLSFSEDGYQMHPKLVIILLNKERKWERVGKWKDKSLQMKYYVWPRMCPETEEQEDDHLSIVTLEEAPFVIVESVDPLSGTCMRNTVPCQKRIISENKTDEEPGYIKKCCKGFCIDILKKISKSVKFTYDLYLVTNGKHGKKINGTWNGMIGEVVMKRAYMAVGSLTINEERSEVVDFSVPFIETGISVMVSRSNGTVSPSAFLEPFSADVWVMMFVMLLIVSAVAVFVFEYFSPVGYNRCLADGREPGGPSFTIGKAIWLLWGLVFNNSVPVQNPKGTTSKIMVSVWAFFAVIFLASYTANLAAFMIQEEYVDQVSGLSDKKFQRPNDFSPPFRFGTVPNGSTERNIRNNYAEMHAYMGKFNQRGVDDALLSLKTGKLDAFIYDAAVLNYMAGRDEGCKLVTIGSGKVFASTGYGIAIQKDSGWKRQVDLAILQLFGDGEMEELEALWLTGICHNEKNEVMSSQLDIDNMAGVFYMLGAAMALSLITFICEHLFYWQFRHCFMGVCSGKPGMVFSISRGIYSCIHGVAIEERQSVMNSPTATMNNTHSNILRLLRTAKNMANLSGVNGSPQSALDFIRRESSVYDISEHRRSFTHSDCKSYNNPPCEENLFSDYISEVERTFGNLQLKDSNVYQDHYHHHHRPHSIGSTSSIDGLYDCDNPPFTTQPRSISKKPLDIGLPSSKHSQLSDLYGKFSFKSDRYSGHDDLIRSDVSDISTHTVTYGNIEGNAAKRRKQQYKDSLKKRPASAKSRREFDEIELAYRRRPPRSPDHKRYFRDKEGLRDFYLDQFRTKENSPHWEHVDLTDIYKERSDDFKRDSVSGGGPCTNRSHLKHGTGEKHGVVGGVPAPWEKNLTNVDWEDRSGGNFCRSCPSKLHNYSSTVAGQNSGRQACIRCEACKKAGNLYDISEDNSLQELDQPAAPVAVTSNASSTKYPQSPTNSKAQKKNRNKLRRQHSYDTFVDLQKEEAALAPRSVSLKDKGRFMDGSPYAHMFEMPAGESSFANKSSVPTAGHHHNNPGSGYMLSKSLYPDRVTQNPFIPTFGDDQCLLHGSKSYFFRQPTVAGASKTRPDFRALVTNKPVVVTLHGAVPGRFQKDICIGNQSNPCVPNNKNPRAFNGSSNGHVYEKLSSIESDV
T1 sequence (Q00961 20-1237, other chains not shown): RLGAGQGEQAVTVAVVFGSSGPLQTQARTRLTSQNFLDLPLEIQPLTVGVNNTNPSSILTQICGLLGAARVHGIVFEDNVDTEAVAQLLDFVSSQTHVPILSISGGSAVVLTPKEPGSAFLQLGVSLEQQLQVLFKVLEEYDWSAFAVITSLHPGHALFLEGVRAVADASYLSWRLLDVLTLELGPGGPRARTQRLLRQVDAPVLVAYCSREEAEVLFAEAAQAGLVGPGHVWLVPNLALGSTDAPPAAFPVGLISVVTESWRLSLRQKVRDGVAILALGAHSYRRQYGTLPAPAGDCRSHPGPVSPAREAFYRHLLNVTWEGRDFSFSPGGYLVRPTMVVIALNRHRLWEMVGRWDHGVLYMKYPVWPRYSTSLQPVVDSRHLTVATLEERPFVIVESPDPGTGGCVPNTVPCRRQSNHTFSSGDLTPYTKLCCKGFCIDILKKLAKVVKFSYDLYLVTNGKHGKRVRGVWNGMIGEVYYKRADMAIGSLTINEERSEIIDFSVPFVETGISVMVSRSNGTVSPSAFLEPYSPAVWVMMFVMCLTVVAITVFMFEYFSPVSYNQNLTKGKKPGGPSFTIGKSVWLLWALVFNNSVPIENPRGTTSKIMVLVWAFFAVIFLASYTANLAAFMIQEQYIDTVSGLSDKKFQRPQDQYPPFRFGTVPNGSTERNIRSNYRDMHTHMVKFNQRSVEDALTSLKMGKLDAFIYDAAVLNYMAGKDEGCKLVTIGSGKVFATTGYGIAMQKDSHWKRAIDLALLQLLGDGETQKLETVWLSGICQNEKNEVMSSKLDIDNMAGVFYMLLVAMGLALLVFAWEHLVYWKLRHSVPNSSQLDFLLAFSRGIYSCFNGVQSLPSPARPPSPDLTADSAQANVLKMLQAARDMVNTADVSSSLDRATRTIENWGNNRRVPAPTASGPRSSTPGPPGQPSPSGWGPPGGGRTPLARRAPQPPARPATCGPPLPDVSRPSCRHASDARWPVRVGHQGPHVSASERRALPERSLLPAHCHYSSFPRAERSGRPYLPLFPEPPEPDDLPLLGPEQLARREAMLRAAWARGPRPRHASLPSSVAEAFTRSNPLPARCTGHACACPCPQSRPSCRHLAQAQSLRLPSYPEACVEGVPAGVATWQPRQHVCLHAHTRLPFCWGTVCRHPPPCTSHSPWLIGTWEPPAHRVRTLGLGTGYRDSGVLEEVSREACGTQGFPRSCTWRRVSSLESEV

Compound	IC50 [1]	IC50 [2]	ED50 [3]	IC50 [4]
Br.Br.Nc1ccc(OCCN2CCC(Cc3ccccc3)CC2)cc1 [Ex. 13, 1-(2-(4-Aminophenoxy)ethyl)-4-benzylpiperidine dihydrobromide]	> 100 µM	90 µM	6 mg/kg	1.3 µM
OCCc1cccc(OCCN2CCC(Cc3ccccc3)CC2)c1 [Ex. 18, 4-Benzyl-1-(2-(3-(2-hydroxyethyl)phenoxy)ethyl)piperidine]	> 100 µM	60 µM	6 mg/kg	0.4 µM
Fc1cccc(OCCCN2CCC(Cc3ccccc3)CC2)c1 [Ex. 22, 4-Benzyl-1-(3-(3-fluorophenoxy)propyl)piperidine hydrobromide]	> 100 µM	90 µM	4 mg/kg	0.9 µM
Clc1ccc(CC2CCN(CCOc3ccccc3)CC2)cc1 [Ex. 24, 4-(4-Chlorobenzyl)-1-(2-phenoxyethyl)piperidine hydrochloride]	100 µM	70 µM	2 mg/kg	1 µM
Br.Br.Nc1ccc(OCCN2CCC(Cc3ccc(Cl)cc3)CC2)cc1 [Ex. 28, 1-(2-(4-Aminophenoxy)ethyl)-4-(4-chlorobenzyl)piperidine dihydrobromide]	> 100 µM	38 µM	5 mg/kg	0.4 µM
Clc1ccc(CC2CCN(CCCOc3ccccc3)CC2)cc1 [Ex. 30, 4-(4-Chlorobenzyl)-1-(3-phenoxypropyl)piperidine hydrobromide]	100 µM	50 µM	6 mg/kg	0.8 µM
Fc1cccc(OCCCN2CCC(Cc3ccc(Cl)cc3)CC2)c1 [Ex. 31, 4-(4-Chlorobenzyl)-1-(3-(3-fluorophenoxy)propyl)piperidine hydrobromide]	60 µM	34 µM	7.5 mg/kg	0.9 µM
Fc1ccc(OCCN2CCC(Nc3ccc(Cl)cc3)CC2)cc1 [Ex. 38, 4-(4-Chloroanilino)-1-(2-(4-fluorophenoxy)ethyl)piperidine dihydrochloride]	> 100 µM	75 µM	10 mg/kg	45 µM
Clc1ccc(NC2CCN(CCCOc3ccccc3)CC2)cc1 [Ex. 40, 4-(N-(4-Chloroanilino)-1-(3-phenoxypropyl)piperidine hydrobromide]	100 µM	80 µM	2.5 mg/kg	3 µM
OC1(Cc2ccccc2)CCN(CCOc2ccccc2)CC1 [Ex. 47, 4-Benzyl-4-hydroxy-1-(2-phenoxyethyl)piperidine hydrochloride]	> 100 µM	85 µM	3.2 mg/kg	3 µM
O=c1[nH]c2cccc(OCCN3CCC(Cc4ccccc4)CC3)c2[nH]1 [Ex. 55, 4-Benzyl-1-[2-(2-oxobenzimidazol-4-oxy)ethyl]piperidine]	> 100 µM	50 µM	6 mg/kg	0.11 µM
O=c1[nH]c2ccc(OCCN3CCC(Cc4ccccc4)CC3)cc2[nH]c1=O [Ex. 58, 4-Benzyl-1-[2-(2,3-dioxoquinoxalin-6-oxy)ethyl]piperidine]	> 100 µM	25 µM	5.1 mg/kg	0.1 µM
O=c1[nH]c2ccc(OCCN3CCC(Cc4ccccc4)CC3)cc2[nH]1 [Ex. 59, 4-Benzyl-1-[2-(2-oxobenzimidazol-5-oxy)ethyl]piperidine]	> 100 µM	75 µM	1 mg/kg	0.024 µM
O=[N+]([O-])c1ccccc1OCCN1CCC(Cc2ccc(Cl)cc2)CC1 [Ex. 73, 4-(4-Chlorobenzyl)-1-[2-(2-nitrophenoxy)ethyl]piperidine]	100 µM	30 µM	8 mg/kg	8 µM
Nc1ccccc1OCCN1CCC(Cc2ccc(Cl)cc2)CC1 [Ex. 74, 4-(4-Chlorobenzyl)-1-[2-(2-aminophenoxy)ethyl]piperidine]	> 100 µM	60 µM	3.5 mg/kg	3 µM
O=c1[nH]c2cccc(OCCN3CCC(Cc4ccc(Cl)cc4)CC3)c2[nH]1 [Ex. 77, 4-(4-Chlorobenzyl)-1-[2-(2-oxobenzimidazol-4-oxy)ethyl]piperidine]	> 100 µM	50 µM	6 mg/kg	0.11 µM
Cl.Oc1ccc(OCCN2CCC(Cc3ccccc3)CC2)cc1 [Ex. 99, 1-[2-(4-hydroxyphenoxy)ethyl]-4-benzylpiperidine hydrochloride]	> 300 µM	> 300 µM	2 mg/kg	0.03 µM
Oc1ccc(OCCN2CCC(Cc3ccc(Cl)cc3)CC2)cc1 [Ex. 101, hydrochloride]	240 µM	55 µM	3 mg/kg	0.05 µM

Compound	IC50 [1]	IC50 [2]	ED50 [3]	IC50 [4]
Oc1ccc(OCCN2CCC(Cc3ccc(F)cc3)CC2)cc1 [Ex. 102, 1-[2-(4-Hydroxyphenoxy)ethyl]-4-(4-fluorobenzyl)piperidine hydrochloride]	290 µM	60 µM	3 mg/kg	0.02 µM
Fc1ccc(OCCN2CCC(Cc3ccccc3)CC2)cc1 [Ex. 103, 4-Benzyl-1-(2-(4-fluorophenoxy)ethyl)piperidine hydrochloride]	> 300 µM	95 µM	3 mg/kg	1 µM
Oc1ccc(CC2CCN(CCOc3ccc(F)cc3)CC2)cc1 [Ex. 104]	> 300 µM	50 µM	3 mg/kg	0.2 µM
Oc1ccc(OCCN2CCC(Cc3cccc(F)c3)CC2)cc1 [Ex. 112, 1-[2-(4-Hydroxyphenoxy)ethyl]-4-(3-fluorobenzylpiperidine hydrochloride]	280 µM	30 µM	4.5 mg/kg	0.08 µM
Cc1ccc(CC2CCN(CCOc3ccc(O)cc3)CC2)cc1 [Ex. 115, 1-[2-(4-Hydroxyphenoxy)ethyl]-4-(4-methylbenzyl)piperidine hydrochloride]	220 µM	75 µM	0.7 mg/kg	0.03 µM
Cc1ccc(CC2CCN(CCOc3ccc(F)cc3)CC2)cc1 [Ex. 116, 1-(2-(4-Fluorophenoxy)ethyl)-4-(4-methylbenzyl)piperidine hydrochloride]	150 µM	70 µM	3 mg/kg	4.5 µM
CCc1ccc(CC2CCN(CCOc3ccc(O)cc3)CC2)cc1 [Ex. 120, hydrochloride]	> 300 µM	55 µM	2 mg/kg	0.02 µM
COc1ccc(CC2CCN(CCOc3ccc(O)cc3)CC2)cc1 [Ex. 121, 1-[2-(4-Hydroxyphenoxy)ethyl]-4-(4-methoxybenzyl)piperidine hydrochloride]	> 300 µM	110 µM	2.5 mg/kg	0.05 µM
Oc1ccc(OCCN2CCC(Cc3ccc(F)c(F)c3)CC2)cc1 [Ex. 122, 1-[2-(4-Hydroxyphenoxy)ethyl]-4-(3,4-difluorobenzyl)piperidine hydrochloride]	280 µM	55 µM	5 mg/kg	0.18 µM
Oc1ccc(OCCN2CCC(O)(Cc3ccc(F)cc3)CC2)cc1 [Ex. 123, 1-[2-(4-Hydroxyphenoxy)ethyl]-4-(4-fluorobenzyl)-4-hydroxy-piperidine hydrochloride]	> 300 µM	50 µM	3 mg/kg	0.07 µM
Cl.Cl.Oc1ccc(OCCN2CCC(Cc3ccccn3)CC2)cc1 [Ex. 125, 1-(2-(4-Hydroxyphenoxy)ethyl)-4-(2-picolyl)piperidine dihydrochloride]	> 300 µM	75 µM	15 mg/kg	3.3 µM
Oc1ccc(OCCN2CCC(Cc3ccccc3F)CC2)cc1 [Ex. 128, 1-[2-(4-Hydroxyphenoxy)ethyl]-4-(2-fluorobenzyl)piperidine hydrochloride]	> 300 µM	110 µM	1 mg/kg	0.04 µM
Oc1ccc(OCCN2CCC(Cc3ccc(C(F)(F)F)cc3)CC2)cc1 [Ex. 129, 1-[2-(4-Hydroxyphenoxy)ethyl]-4-(4-trifluorobenzyl)piperidine hydrochloride]	170 µM	170 µM	2 mg/kg	0.05 µM
CC(C)c1ccc(CC2CCN(CCOc3ccc(O)cc3)CC2)cc1 [Ex. 131, 1-[2-(4-Hydroxyphenoxy)ethyl]-4-(4-isopropylbenzyl)piperidine hydrochloride]	> 300 µM	50 µM	1.5 mg/kg	0.05 µM
CC(C)(C)c1ccc(CC2CCN(CCOc3ccc(O)cc3)CC2)cc1 [Ex. 132, 1-[2-(4-Hydroxyphenoxy)ethyl]-4-(4-t-butylbenzyl)piperidine hydrochloride]	230 µM	23 µM	1 mg/kg	0.16 µM
Cc1ccc(CC2CCN(CCOc3ccc(F)cc3)CC2)c(F)c1 [Ex. 133, 4-(2-Fluoro-4-methylbenzyl)-1-(2-(4-fluorophenoxy)ethyl)piperidine hydrochloride]	150 µM	80 µM	2.5 mg/kg	0.21 µM
Cc1ccc(CC2CCN(CCOc3ccc(O)cc3)CC2)c(F)c1 [Ex. 134, 4-(2-Fluoro-4-methylbenzyl)-1-(2-(4-hydroxyphenoxy)ethyl)piperidine hydrochloride]	140 µM	60 µM	1.5 mg/kg	0.03 µM
